Assay results taken from ChEMBL document CHEMBL5154817, “Structure-activity relationship studies on O-alkylamino-tethered salicylamide derivatives with various amino acid linkers as potent anticancer agents” (Eur J Med Chem, 2022).

Assays:
[1] = Cytotoxicity against human MCF-10A cells incubated for 72 hrs by MTT assay; format: toxicity, cell-based
[2] = test system: MDA-MB-231; test: Antiproliferative activity against human MDA-MB-231 cells assessed as inhibition of cell growth incubated for 72 hrs by MTT assay; format: functional, cell-based; conditions: MDA-MB-231, 72 h
[3] = test system: MDA-MB-468; test: Antiproliferative activity against human MDA-MB-468 cells assessed as inhibition of cell growth incubated for 72 hrs by MTT assay; format: functional, cell-based; conditions: MDA-MB-468, 72 h
[4] = test system: MCF7; test: Antiproliferative activity against human MCF7 cells assessed as inhibition of cell growth incubated for 72 hrs by MTT assay; format: functional, cell-based; conditions: MCF7, 72 h
[5] = test system: T47D; test: Antiproliferative activity against human T47D cells assessed as inhibition of cell growth incubated fro 72 hrs by MTT assay; format: functional, cell-based

Compound | IC50 at 72 h [1] [µM] | IC50 [2] [µM] | IC50 [3] [µM] | IC50 [4] [µM] | IC50 [5] [µM]
CC(C)[C@H](NC(=O)c1cc(Cl)ccc1OCCNC(=O)OC(C)(C)C)C(=O)Nc1ccc2c(c1)S(=O)(=O)C=C2 | 2.6 | 1.53 | 2.38 | 1.52 | 1.59
CC(C)[C@H](NC(=O)c1cc(Cl)ccc1OCCNC(=O)OC(C)(C)C)C(=O)Nc1ccc(C(F)(F)F)cc1Cl |  | > 10 |  | > 10 | 
CC(C)[C@H](NC(=O)c1cc(Cl)ccc1OC1CCN(C(=O)OC(C)(C)C)CC1)C(=O)Nc1ccc([N+](=O)[O-])cc1Cl |  | > 10 |  | > 10 | 
C[C@H](NC(=O)c1cc(Cl)ccc1OCCNC(=O)OC(C)(C)C)C(=O)Nc1ccc([N+](=O)[O-])cc1Cl |  | > 10 |  | > 10 | 
CC(C)(C)OC(=O)NCCOc1ccc(Cl)cc1C(=O)N[C@@H](CO)C(=O)Nc1ccc([N+](=O)[O-])cc1Cl |  | > 10 |  | > 10 | 
CC[C@@H](C)[C@H](NC(=O)c1cc(Cl)ccc1OCCNC(=O)OC(C)(C)C)C(=O)Nc1ccc([N+](=O)[O-])cc1Cl |  | 4.02 |  | 10.5 | 
CC(C)[C@H](NC(=O)c1cc(Cl)ccc1OCCNC(=O)OC(C)(C)C)C(=O)Nc1cc(C(F)(F)F)cc(C(F)(F)F)c1 |  | > 10 |  | > 10 | 
CC(C)[C@H](NC(=O)c1cc(Cl)ccc1OCCN)C(=O)Nc1ccc2c(c1)S(=O)(=O)C=C2 |  | 5.95 |  | 4.35 | 
NCCOc1ccc(Cl)cc1C(=O)N[C@@H](Cc1ccccc1)C(=O)Nc1ccc([N+](=O)[O-])cc1Cl |  | 7.97 |  | 6.58 | 
CC(C)C[C@H](NC(=O)c1cc(Cl)ccc1OCCN)C(=O)Nc1ccc([N+](=O)[O-])cc1Cl |  | > 10 |  | > 10 | 
CC(C)COC(=O)NCCOc1ccc(Cl)cc1C(=O)N[C@H](C(=O)Nc1ccc([N+](=O)[O-])cc1Cl)C(C)C |  | 4.9 |  | 10.1 | 
CC(C)(C)OC(=O)NCCOc1ccc(Cl)cc1C(=O)NCC(=O)Nc1ccc2c(c1)S(=O)(=O)C=C2 |  | 2.08 |  | 1.43 | 
CC(C)(C)OCC(NC(=O)c1cc(Cl)ccc1OCCN)C(=O)Nc1ccc([N+](=O)[O-])cc1Cl (single isomer, unassigned) |  | 3.22 |  | 1.62 | 
CC(C)[C@H](NC(=O)c1cc(Cl)ccc1OCCCCNC(=O)OC(C)(C)C)C(=O)Nc1ccc([N+](=O)[O-])cc1Cl |  | > 10 |  | > 10 | 
CC(C)[C@H](NC(=O)c1cc(Cl)ccc1OCCCNC(=O)OC(C)(C)C)C(=O)Nc1ccc([N+](=O)[O-])cc1Cl |  | > 10 |  | > 10 | 
COC(=O)NCCOc1ccc(Cl)cc1C(=O)N[C@H](C(=O)Nc1ccc([N+](=O)[O-])cc1Cl)C(C)C |  | > 10 |  | > 10 | 
CC(C)(C)OC(=O)CC[C@H](NC(=O)c1cc(Cl)ccc1OCCN)C(=O)Nc1ccc([N+](=O)[O-])cc1Cl |  | 5.99 |  | 3.08 | 
CC(C)[C@H](NC(=O)c1cc(Cl)ccc1OCCNC(=O)OCc1ccccc1)C(=O)Nc1ccc([N+](=O)[O-])cc1Cl |  | > 10 |  | > 10 | 
CC(C)[C@H](NC(=O)c1cc(Cl)ccc1OCCN)C(=O)Nc1cc(C(F)(F)F)cc(C(F)(F)F)c1 |  | 5.43 |  | 6.01 | 
CC(C)[C@H](NC(=O)c1cc(Cl)ccc1OCCN)C(=O)Nc1cc(F)cc(C(F)(F)F)c1 |  | 4.34 |  | > 10 | 
CC(C)[C@H](NC(=O)c1cc(Cl)ccc1OCCCCN)C(=O)Nc1ccc([N+](=O)[O-])cc1Cl |  | 5.59 |  | > 10 | 
CC(C)(C)OC(=O)NCCOc1ccc(Cl)cc1C(=O)N[C@@H](Cc1ccccc1)C(=O)Nc1ccc2c(c1)S(=O)(=O)C=C2 | 1.73 | 1.17 |  | 1.53 | 1.46
O=C(N[C@@H](Cc1ccccc1)C(=O)Nc1cc(C(F)(F)F)cc(C(F)(F)F)c1)c1cc(Cl)ccc1OC1CCNCC1 | 5.9 | 2.32 | 2.63 | 2.63 | 3.19
CC(C)C[C@H](NC(=O)c1cc(Cl)ccc1OCCNC(=O)OC(C)(C)C)C(=O)Nc1ccc([N+](=O)[O-])cc1Cl |  | > 10 |  | > 10 | 
O=C(Nc1ccc([N+](=O)[O-])cc1Cl)c1cc(Cl)ccc1O [NICLOSAMIDE] |  | 1.78 |  | 8.13 | 

Compound | IC50 at 72 h [1] [µM] | IC50 [2] [µM] | IC50 [3] [µM] | IC50 [4] [µM] | IC50 [5] [µM]
O=C(N[C@@H](Cc1ccccc1)C(=O)Nc1ccc([N+](=O)[O-])cc1Cl)c1cc(Cl)ccc1OC1CCNCC1 |  | 3.24 |  | 4.48 | 
CC(C)(C)OCC(NC(=O)c1cc(Cl)ccc1OCCNC(=O)OC(C)(C)C)C(=O)Nc1ccc([N+](=O)[O-])cc1Cl (single isomer, unassigned) |  | > 10 |  | > 10 | 
NCCOc1ccc(Cl)cc1C(=O)N[C@@H](Cc1ccccc1)C(=O)Nc1cc(C(F)(F)F)cc(C(F)(F)F)c1 |  | 4.92 |  | 2.95 | 
CC(C)[C@H](NC(=O)c1cc(Cl)ccc1OCCNC(=O)OC(C)(C)C)C(=O)Nc1ccc(F)c(F)c1 |  | 3.72 |  | > 10 | 
CC(C)(C)OC(=O)NCCOc1ccc(Cl)cc1C(=O)N[C@@H](Cc1ccccc1)C(=O)Nc1cc(C(F)(F)F)cc(C(F)(F)F)c1 |  | > 10 |  | > 10 | 
CC(C)(C)OC(=O)N1CCC(Oc2ccc(Cl)cc2C(=O)N[C@@H](Cc2ccccc2)C(=O)Nc2ccc([N+](=O)[O-])cc2Cl)CC1 |  | > 10 |  | > 10 | 
NCCOc1ccc(Cl)cc1C(=O)NCC(=O)Nc1ccc2c(c1)S(=O)(=O)C=C2 |  | 6.37 |  | 9.44 | 
CC(C)(C)OC(=O)NCCOc1ccc(Cl)cc1C(=O)N[C@@H](Cc1ccc(O)cc1)C(=O)Nc1ccc([N+](=O)[O-])cc1Cl |  | > 10 |  | 8.81 | 
CC(C)(C)OC(=O)CC[C@H](NC(=O)c1cc(Cl)ccc1OCCNC(=O)OC(C)(C)C)C(=O)Nc1ccc([N+](=O)[O-])cc1Cl |  | > 10 |  | > 10 | 
NCCOc1ccc(Cl)cc1C(=O)Nc1ccc([N+](=O)[O-])cc1Cl |  | 3.48 | 5.05 | 4.14 | 1.88
CC(C)[C@H](NC(=O)c1cc(Cl)ccc1OCCN)C(=O)Nc1ccc([N+](=O)[O-])cc1Cl |  | > 10 |  | > 10 | 
NCCOc1ccc(Cl)cc1C(=O)N[C@H](Cc1ccccc1)C(=O)Nc1ccc([N+](=O)[O-])cc1Cl |  | 5.02 |  | 4.89 | 
C[C@H](NC(=O)c1cc(Cl)ccc1OCCN)C(=O)Nc1ccc([N+](=O)[O-])cc1Cl |  | > 10 |  | > 10 | 
CC(=O)NCCOc1ccc(Cl)cc1C(=O)N[C@H](C(=O)Nc1ccc([N+](=O)[O-])cc1Cl)C(C)C |  | > 10 |  | > 10 | 
CC[C@@H](C)[C@H](NC(=O)c1cc(Cl)ccc1OCCN)C(=O)Nc1ccc([N+](=O)[O-])cc1Cl |  | 6.18 |  | > 10 | 
CC(C)[C@H](NC(=O)c1cc(Cl)ccc1OCCN)C(=O)Nc1ccc(F)c(F)c1 |  | > 10 |  | > 10 | 
CC(C)(C)OC(=O)NCCOc1ccc(Cl)cc1C(=O)N[C@@H](Cc1ccccc1)C(=O)Nc1ccc([N+](=O)[O-])cc1Cl |  | > 10 |  | > 10 | 
CC(C)[C@H](NC(=O)c1cc(Cl)ccc1OCCNC(=O)OC(C)(C)C)C(=O)Nc1cc(F)cc(C(F)(F)F)c1 |  | 7.87 |  | 11.5 | 
CC(C)[C@H](NC(=O)c1cc(Cl)ccc1OCCCN)C(=O)Nc1ccc([N+](=O)[O-])cc1Cl |  | 6.77 |  | > 10 | 
CSCC[C@H](NC(=O)c1cc(Cl)ccc1OCCNC(=O)OC(C)(C)C)C(=O)Nc1ccc([N+](=O)[O-])cc1Cl |  | > 10 |  | > 10 | 
C=C(NC(=O)c1cc(Cl)ccc1OCCNC(=O)OC(C)(C)C)C(=O)Nc1ccc([N+](=O)[O-])cc1Cl |  | 5.34 |  | 4.48 | 
CC(C)(C)OC(=O)N1CCC(Oc2ccc(Cl)cc2C(=O)N[C@@H](Cc2ccccc2)C(=O)Nc2cc(C(F)(F)F)cc(C(F)(F)F)c2)CC1 |  | > 10 |  | > 10 | 
CC(C)[C@H](NC(=O)c1cc(Cl)ccc1OC1CCNCC1)C(=O)Nc1ccc([N+](=O)[O-])cc1Cl |  | 5.23 |  | > 10 | 
CSCC[C@H](NC(=O)c1cc(Cl)ccc1OCCN)C(=O)Nc1ccc([N+](=O)[O-])cc1Cl |  | > 10 |  | > 10 | 
CC(C)[C@H](NC(=O)c1cc(Cl)ccc1OCCN)C(=O)Nc1ccc(C(F)(F)F)cc1Cl |  | 5.44 |  | > 10 | 
